The record followed here is the METLIN SMRT retention time set (Domingo-Almenara et al. 2019).

The data set is described as follows: gradient 5% acetonitrile 3 min, to 50% in 2 min, to 85% in 15 min, held 3 min, 100 µL/min. The settings on record: column: Zorbax Extend-C18 2.1 x 50 mm; eluents: water / acetonitrile, 0.1% formic acid. A digest of the protocol: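 Mixtures of ~100 pure standards were chromatographed on a Zorbax Extend-C18 column (2.1 × 50 mm, 1.8 μm) at 100 μL/min using water and acetonitrile, each with 0.1% formic acid. Detection used a quadrupole time-of-flight mass spectrometer in positive and negative ionization mode, and data collection spanned 3 months. Retention time was obtained from adduct peaks picked computationally and each checked manually.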
Take `CCC(C)NC(=O)CSc1nc(N2CCc3ccccc3C2)nc2ccccc12` (stereo not given): the RP-LC retention time was 795 s.
As to `COc1cc(NC(=O)NCCc2c(C)nn(C)c2C)cc(OC)c1OC`, the RP-LC retention time turned out to be 610 s.
The result for `Cc1ccccc1OCc1nc(-c2ccc3c(c2)oc(=O)n3C(C)C)no1` reads 1160 s; that for `NS(=O)(=O)c1ccc2nc(NC(=O)C3=COCCO3)sc2c1`, 613 s.
`O=C(CC1CCN(C(=O)c2ccc3oc(-c4ccccc4)nc3c2)CC1)N1CCCC1` gave an RP-LC retention time of 782 s.
The compound `O=C1CN(S(=O)(=O)c2cccc(Cl)c2)CC2(CCOCC2)N1CC1CC1` had an RP-LC retention time of 877 s.
As to `CCC1Oc2ccc(S(=O)(=O)N3CCC(C(=O)Nc4cccc(Cl)c4)CC3)cc2NC1=O` (stereo not given), the RP-LC retention time came out at 892 s.
Compound `O=C(NCCCn1ncccc1=O)c1coc(NC(=O)c2cccs2)n1` yielded an RP-LC retention time of 589 s.
The compound `CC(NC(=O)Cc1c(F)cccc1Cl)C(=O)N1CCN(c2ccccn2)CC1` (stereo not given) yielded an RP-LC retention time of 599 s.
In turn, `COc1ccc(CN2CCC3(CC2)CC(C)(O)CCO3)cc1C` (stereo not given) yielded an RP-LC retention time of 629 s.
The compound `CCc1cccc(N2C=NS(=O)(=O)c3cccnc32)c1` came in with an RP-LC retention time of 836 s.
`COc1ccc(OC)c(CNC(=O)C2CCCN(c3nccnc3Sc3ccc(C)cc3)C2)c1` (stereo not given) registered an RP-LC retention time of 1070 s.
As for `Cc1ccc(Sc2nccnc2N2CCCC(C(=O)NCCCc3ccccc3)C2)cc1` (stereo not given), the RP-LC retention time is 1210 s.
As for `Cc1cc(=O)n(CC(=O)Nc2cc(F)ccc2F)c(N2CCCC2)n1`, the RP-LC retention time is 641 s.
Compound `Cc1ccc2c(c1)N(S(C)(=O)=O)CCC(C(=O)NC1CCCCCC1)O2` (stereo not given) gave an RP-LC retention time of 957 s.
`CCc1ccccc1NC(=O)N1CCC(OC2CCN(S(C)(=O)=O)CC2)CC1` gave an RP-LC retention time of 770 s.
`O=C(Cn1c(=O)c2cccn2c2ccc(F)cc21)NCc1cccs1` returned an RP-LC retention time of 785 s.
Then `CCOC(=O)C1CCN(c2ncc(S(=O)(=O)c3ccc(CC)cc3)c(N)n2)CC1`, with 1030 s; and `COC(=O)c1nnn(-c2ccc(C)c(C)c2)c1C(=O)OC`, with 916 s; and `CCCN(CC1CC1)C(=O)CCC1CCCN(S(=O)(=O)c2ccc(C)cc2)C1` (stereo not given), with 1120 s.
`Cc1ccc(N2CC(c3noc(-c4ccc(N(C)C)cc4)n3)CC2=O)cc1` (stereo not given) displayed an RP-LC retention time of 980 s.
On to `CC(=O)Nc1cccc(N2CC(C(=O)Nc3ccc(OC(F)(F)F)cc3)CC2=O)c1` (stereo not given), for which the RP-LC retention time stood at 760 s.
Then `Fc1ccc(OCc2nnc3sc(COc4ccccc4)nn23)cc1`, with 938 s.
Compound `COc1cc(NC(=O)N2CCN(Cc3ccccc3)c3ncccc32)cc(OC)c1OC` returned an RP-LC retention time of 665 s.
The result for `O=c1c2cc(-c3cccs3)nn2ccn1CC(O)c1cccc(Cl)c1` (stereo not given) reads 924 s.
The result for `CCOc1ccc(-n2ccn3cc(-c4ccc(C)cc4C)nc3c2=O)cc1` reads 942 s; that for `O=C(NCCC1=CCCCC1)c1ccc2c(c1)NC(=O)C1CCCCN21` (stereo not given), 930 s; that for `CCOc1ccc(-n2nc(CO)c(C(=O)NC3CCCC3)n2)cc1`, 1020 s.
For `Cn1nc(-c2nc(-c3ccccc3)no2)c2c1CCN(C(=O)NC(C)(C)C)C2`, the RP-LC retention time came to 780 s.
Regarding `COc1ccccc1NC(=O)Cn1c2ccccc2n2c(=O)cc(-c3ccc(F)cc3)nc12`, the RP-LC retention time amounted to 1010 s.
On to `CCOc1cccc(-c2noc(Cn3ccn4nc(-c5cccc(OC)c5)cc4c3=O)n2)c1`, for which the RP-LC retention time is 770 s.
Take `CN(C)c1ccc(-c2nc3ccc(Cl)cn3c2Nc2ccc3c(c2)OCCO3)cc1`: the RP-LC retention time came to 744 s.
Consider `CCOC(=O)c1ncoc1-c1ccccc1C(=O)NC(C)C`, for which the RP-LC retention time came to 676 s.
Then `Cc1ccc(N2CN(Cc3ccccc3)S(=O)(=O)c3cccnc32)cc1`, with 1130 s; and `CCOc1ccc(-n2c(=O)c3sccc3n(Cc3nc(-c4ccccc4OC)no3)c2=O)cc1`, with 910 s.
Consider `Cc1cc(OC(=O)c2cc3ccccc3o2)c([N+](=O)[O-])c(=O)[nH]1`, for which the RP-LC retention time amounted to 1160 s.
For the compound `Cc1nc(N2CCOCC2)cc(N2CCN(C(=O)c3cccs3)CC2)n1`, the RP-LC retention time came out at 607 s.
Then `COc1ccc(NC(=O)c2ccc(-n3cnc(NC(=O)C4CC4)c3)cc2)cc1OC`, with 645 s; and `CCn1cnc2ccc(-c3noc(-c4cc(OC)cc(OC)c4)n3)cc21`, with 797 s.
Then `CC(=O)Nc1ccc(CC(=O)O)cc1`, with 620 s; and `CCN(CC)c1nc2cc(C(=O)OC)ccc2c(=O)n1-c1ccc(C)c(C)c1`, with 1270 s.
Consider `CCn1c(C(=O)N2CCCC(C(=O)N3CCN(c4ccccc4)CC3)C2)cc2sccc21` (stereo not given), for which the RP-LC retention time came to 970 s.
`Cc1nn(C(C)C(=O)NCCCN2CCN(C)CC2)c(=O)c2c(C)n(-c3ccccc3)nc12` (stereo not given) came in with an RP-LC retention time of 592 s.
In the case of `Cn1ncn2cc(S(=O)(=O)NCc3ccccc3Cl)cc2c1=O`, the RP-LC retention time came to 792 s.
The result for `CC(C)S(=O)(=O)c1cc2c(cc1NC(=O)c1ccc(Br)cc1)n(C)c(=O)n2C` reads 951 s; that for `Cc1nc(-c2csc(S(=O)(=O)N3CCC(C(=O)NCc4ccccn4)CC3)c2)no1`, 636 s.
Turning to `Cc1nnc(-c2cc(C)n(CC(=O)Nc3ccc(C)c(C)c3)c2C)o1`, the RP-LC retention time was 809 s.
Take `CCn1cc(-c2nc(C)c(C(=O)NCc3cccc(C)c3)s2)c2cccnc21`: the RP-LC retention time stood at 989 s.
`C[C@H]1CN(C(=O)Nc2ccc(F)cc2F)C[C@@H]1c1nc(-c2cccnc2)no1`: the RP-LC retention time is 770 s.
`COc1cccc(CNS(=O)(=O)c2ccc(-c3c(C)noc3C)cc2)c1` gave an RP-LC retention time of 904 s.
The result for `CCNC(=O)c1cc2c(n(-c3ccc(C(C)C)cc3)c1=O)CCCC2=O` reads 905 s; that for `COc1ccc(-c2c(C)noc2NC(C)=O)cc1S(=O)(=O)Nc1ccc(Cl)cc1C`, 820 s; that for `COc1ccc(C(=O)Nc2nc(C)c3cc4c(cc3n2)OCO4)cc1`, 692 s.
As to `CNC(=O)c1cccc(C(=O)N(C)c2ccccc2)n1`, the RP-LC retention time was determined as 662 s.
In turn, `Cc1c(C(=O)NCCOc2cccc3cccnc23)cnn1-c1ccccc1` returned an RP-LC retention time of 593 s.
`COc1ccc(-n2c(C)nc3ccc(NC(=O)C4CC4)cc3c2=O)cc1` came in with an RP-LC retention time of 683 s.
The result for `Fc1ccc(-c2nnc(Cc3nc(-c4cccnc4)no3)o2)cc1` reads 747 s.
In turn, `O=C(CCCSc1ccc(NC(=O)c2ccc(F)cc2)nn1)NCc1cccs1` showed an RP-LC retention time of 802 s.
The result for `CCN(CCCNS(=O)(=O)c1ccc2c(c1)CCCC(=O)N2)c1ccccc1` reads 618 s.
The result for `CCc1ccc(NC(=O)N(CC)c2nc(-c3ccc(C4CCCCC4)cc3)cs2)cc1` reads 641 s; that for `O=S(=O)(Cc1ccccc1F)N1CCCC(c2nn[nH]n2)C1` (stereo not given), 706 s; that for `COc1ccc(-c2noc(C3CCCN3C(=O)c3cc(F)cc(F)c3)n2)cc1` (stereo not given), 1020 s.
With `CCc1nnc([C@@H]2CC(F)(F)CN2C(=O)COc2ccc(F)cc2)o1`, the RP-LC retention time stood at 800 s.
`CSc1ncccc1C(=O)N(Cc1cccs1)Cc1cccn1C` displayed an RP-LC retention time of 904 s.
The result for `CNc1ncnc2c1cnn2-c1ccc(F)cc1` reads 657 s; that for `O=C(CCc1nnn2c1CN(C(=O)Nc1ccccc1F)CC2)NC1CC1`, 618 s; that for `Cc1ccc(CN2CCN(CC(=O)Nc3cc(C)cc(C)c3)C(=O)C2=O)cc1`, 838 s.
The result for `Cc1ccc(-c2cn3c(CC(=O)NCc4ccc(Cl)cc4)csc3n2)cc1C` reads 892 s; that for `CNS(=O)(=O)CCCOc1ccc2c(c1)OCO2`, 697 s.
Compound `CCc1ccc(S(=O)(=O)Nc2ccc3c(c2)nc(-c2ccc(C(=O)NC)cc2)n3C)cc1` yielded an RP-LC retention time of 674 s.
For the compound `COc1ccc(N2CC(c3nc(-c4cc(OC)c(OC)c(OC)c4)no3)CC2=O)cc1Cl` (stereo not given), the RP-LC retention time came out at 905 s.
Then `CCN1C(=O)c2cccnc2Sc2cc(NC(=O)C(C)(C)C)ccc21`, with 795 s.
`CCOC(=O)C1CCCN(S(=O)(=O)c2cc(-c3nc(C)c(C)s3)sc2C)C1` (stereo not given) registered an RP-LC retention time of 1170 s.
`COc1cccc(-c2noc(-c3cc(N4CCN(c5ccccn5)CC4)nc4ccccc34)n2)c1OC` came in with an RP-LC retention time of 841 s.
`CCNC(=O)C1CCN(c2nc3ccc(-c4ccccc4F)nc3s2)CC1` showed an RP-LC retention time of 848 s.
Then `Cc1cccc(S(=O)Cc2ccc(C(=O)NCCN3CCOCC3)o2)c1` (stereo not given), with 583 s; and `Cc1nn(C(C)C(=O)NCCN2CCOCC2)c(=O)c2nn(-c3ccccc3)c(C)c12` (stereo not given), with 615 s.
On to `O=C(Nc1nc(-c2ccccc2)c(-c2ccccc2)s1)C1=COCCO1`, for which the RP-LC retention time was determined as 1060 s.
For the compound `O=C(C1CCCN(c2nn3c(=O)c4c(nc3s2)CCCC4)C1)N1CCC2(CC1)OCCO2` (stereo not given), the RP-LC retention time worked out at 674 s.
Turning to `Cc1nc(-c2cc3cccc(C)c3nc2NCCc2ccccn2)no1`, the RP-LC retention time worked out at 764 s.
